Where two headings read alike, the source gives them in different places.
Assay type: physicochemical
Experimental: To this salt, 0.5 ml of water was added, followed by stirring at room temperature for 4 hours, after which the liquid was filtered through a 0.2 μm filter and quantified by HPLC. The peptide B and 3-hydroxy-2-naphthoic acid concentrations were 2.37 g/l and 0.751 g/l, respectively.

## CCNC(=O)[C@@H]1CCCN1C(=O)[C@H](CCCNC(=N)N)NC(=O)[C@H](CC(C)C)NC(=O)[C@@H](CC(C)C)NC(=O)[C@H](Cc1ccc(O)cc1)NC(=O)[C@H](CO)NC(=O)[C@H](Cc1c[nH]c2ccccc12)NC(=O)[C@H](Cc1c[nH]cn1)NC(=O)[C@@H]1CCC(=O)N1 [acetate of peptide B, reference compound]
Water solubility
  solubility: ≥ 1000 mg/mL

## CCNC(=O)[C@@H]1CCCN1C(=O)[C@H](CCCNC(=N)N)NC(=O)[C@H](CC(C)C)NC(=O)[C@@H](CC(C)C)NC(=O)[C@H](Cc1ccc(O)cc1)NC(=O)[C@H](CO)NC(=O)[C@H](Cc1c[nH]c2ccccc12)NC(=O)[C@H](Cc1c[nH]cn1)NC(=O)[C@@H]1CCC(=O)N1
  water solubility relative to the water solubility of the acetate of peptide B: not more than 1/100
3-hydroxy-2-naphthoic acid concentration in saturated aqueous solution (water solubility of the salt)
  solubility: 0.751 mg/mL
Peptide B concentration in saturated aqueous solution (water solubility of the salt)
  solubility: 2.37 mg/mL
